Source: paper PMC7465109, “Discovery of Sulfated Small Molecule Inhibitors of Matrix Metalloproteinase-8” (Biomolecules, 2020)

Legend:
MMP-8 = target: T1, MMP-8 (Homo sapiens, UniProt P22894); assay: Direct inhibition of MMP-8, fluorogenic substrate hydrolysis assay; type: biochemical; details: for IC50 / ΔY (efficacy of MMP-8 inhibition): Tris-buffered saline, 10 mM CaCl2, 1 µM ZnCl2, pH 7.5, 37 °C; for IC50: error ± 1 SD, read-out: IC50 (potency of MMP-8 inhibition); for ΔY (efficacy of MMP-8 inhibition): from dose-response regression
T1 construct: purchased R&D Systems (Minneapolis, MN, USA)
T1 sequence (P22894 101-467): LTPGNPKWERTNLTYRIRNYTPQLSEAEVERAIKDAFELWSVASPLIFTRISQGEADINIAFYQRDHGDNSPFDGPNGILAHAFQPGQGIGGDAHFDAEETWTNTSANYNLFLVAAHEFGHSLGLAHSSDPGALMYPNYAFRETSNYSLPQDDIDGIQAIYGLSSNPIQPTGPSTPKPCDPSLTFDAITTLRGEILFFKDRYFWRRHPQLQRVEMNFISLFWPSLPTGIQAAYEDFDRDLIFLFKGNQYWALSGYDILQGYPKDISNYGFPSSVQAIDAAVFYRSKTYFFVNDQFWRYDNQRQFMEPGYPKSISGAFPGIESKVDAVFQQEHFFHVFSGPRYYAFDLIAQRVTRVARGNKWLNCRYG
Description: NSGMs were screened for the inhibition of MMP-8 using a fluorogenic substrate assay, as described earlier. Briefly, 100 µg/mL pro-MMP-8 was activated by incubating with 1mM p-aminomercuric acetate at 37 °C for 1 hr. Activated MMP-8 (10 nM, final) was then incubated with NSGMs (100 µM, final) in Tris-buffered saline containing 10 mM CaCl2,1 µM ZnCl2, pH 7.5 for 10 min at 37 °C. Residual MMP-8 activity was measured by adding the fluorogenic substrate (DNP-Pro-Leu-Ala- Tyr-Trp-Ala-Arg, 20 µM, final) and monitoring initial linear rate of increase in fluorescence. IC50s were calculated using the following equation, Y=Y0+YM−Y0/1+10^(log[I]0−logIC50)×HS . Y is the ratio of residual enzyme activity in the presence of NSGM to that in its absence, Y0 and YM are the minimal and maximal values of Y, respectively, obtained following regression, and HS is the Hill slope of inhibition.

MMP-9 = target: T2, MMP-9 (Homo sapiens, UniProt P14780); assay: MMP-9 inhibitor screening assay kit (Abcam #ab139448); type: biochemical; details: NSGM 100 µM; read-out: MMP-9 inhibition in screen
T2 construct: purchased Abcam (Cambridge, UK) ab139448
T2 sequence (P14780 107-444 limits assumed): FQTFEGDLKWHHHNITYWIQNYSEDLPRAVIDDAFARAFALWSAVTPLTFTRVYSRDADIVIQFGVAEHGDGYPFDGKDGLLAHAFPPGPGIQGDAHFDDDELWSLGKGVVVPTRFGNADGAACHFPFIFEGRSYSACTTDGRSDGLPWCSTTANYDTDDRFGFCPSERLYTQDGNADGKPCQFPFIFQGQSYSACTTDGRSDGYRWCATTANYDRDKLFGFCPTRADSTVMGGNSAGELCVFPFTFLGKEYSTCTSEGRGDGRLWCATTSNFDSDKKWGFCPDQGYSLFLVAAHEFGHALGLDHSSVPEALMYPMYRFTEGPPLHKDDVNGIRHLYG
Description: Screening of sulfated benzofurans and quinazolinones (100 µM, final) against MMP-9 was performed using a commercially available assay kit (Abcam catalog #ab139448) following manufacturer’s protocol. All experiments were performed at least twice in duplicates.

[1] = NSGM 100 µM, MMP-8 10 nM, pH 7.5, 37 °C

MMP-8 inhibition in library screen (MMP-8; [1]) [%]	IC50 (MMP-8) [µM]	ΔY (efficacy of MMP-8 inhibition) (MMP-8) [%]	inhibition at 100 µM (MMP-9) [%]	MMP-8 inhibition in library screen (result in words) (MMP-8; [1])	SMILES
> 80	25 ± 1	100 ± 2	–	–	O=c1c2ccccc2nc(-c2ccc(OS(=O)(=O)O)cc2)n1CCCCCCCCCn1cc(Cn2c(-c3ccc(OS(=O)(=O)O)cc3)nc3ccccc3c2=O)nn1 [NSGM 40]
> 80	34 ± 4	98 ± 8	–	–	O=c1c2ccccc2nc(-c2ccc(OS(=O)(=O)O)cc2)n1CCCCCCCCCCCCn1cc(Cn2c(-c3ccc(OS(=O)(=O)O)cc3)nc3ccccc3c2=O)nn1 [NSGM 42]
> 80	15 ± 1	97 ± 2	–	–	O=c1c2ccccc2nc(-c2ccc(OS(=O)(=O)O)cc2)n1CCCCCCCCCCn1cc(Cn2c(-c3ccc(OS(=O)(=O)O)cc3)nc3ccccc3c2=O)nn1 [NSGM 41]
–	–	–	> 80	did not inhibit MMP-8	CCOC(=O)c1c(C)oc2cc(OCC3CCCCC3)c(OCc3oc4cc(OCC5CCCCC5)c(OS(=O)(=O)O)cc4c3C(=O)OCC)cc12 [NSGM 29]
